Reference: patent EP0999856B1, “RADIOPHARMACEUTICALS FOR IMAGING INFECTION AND INFLAMMATION” (Bristol-Myers Squibb Pharma Company, priority 1996, dated 1998)

Molecular target: PMN LTB4 receptor (Homo sapiens, UniProt Q15722)
Experiment: LTB4 Human Neutrophil (PMN) Binding Assay
Description: Heparinized blood was placed on a ficol gradient followed by its sedimentation with dextran. […] The PMN solution was adjusted to achieve a concentration of 8 X 10^6 PMN/ml. […] Very briefly, the assay was performed as follows; [3H]LTB4 (1 nM) and test agent were placed into a 96 well microplate with filters (0.65 µm pore size). PMN solution (8 x 10^6/ml) was added and the microplate incubated for 10 min at 4° C. The microplate was then placed on Millipore filtration system; the wells washed with cold saline (3 x) and dried. The filters were removed from the microplate; placed into scintillation fluid and the concentration of [3H]LTB4 determined.

PMN LTB4 receptor, sequence (Q15722 whole entry): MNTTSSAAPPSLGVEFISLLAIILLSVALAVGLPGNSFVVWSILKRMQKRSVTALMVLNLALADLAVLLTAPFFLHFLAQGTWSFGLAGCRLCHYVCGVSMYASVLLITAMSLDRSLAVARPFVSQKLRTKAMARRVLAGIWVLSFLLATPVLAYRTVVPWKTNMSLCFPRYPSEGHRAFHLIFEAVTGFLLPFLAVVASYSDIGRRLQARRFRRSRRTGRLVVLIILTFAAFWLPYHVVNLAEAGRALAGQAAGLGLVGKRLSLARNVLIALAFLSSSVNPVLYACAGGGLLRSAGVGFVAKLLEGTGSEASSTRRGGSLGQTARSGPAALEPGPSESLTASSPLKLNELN

Compound: CCc1cc(-c2ccc(F)cc2)c(O)cc1OCCCCC(C)(C)CNC(=O)c1ccc(NN=Cc2ccccc2)nc1 [IIa]
- Ki: 8 nM
